{"source": "patent US10457684B2", "about": "“[1,2,3]triazolo[4,5-d]pyrimidine derivatives” (Hoffmann-La Roche Inc., priority 2016, dated 2019)", "key": {"human CB1 receptor": {"target": "human CB1 receptor (Homo sapiens (Human), UniProt P21554)", "sequence (P21554 whole entry)": "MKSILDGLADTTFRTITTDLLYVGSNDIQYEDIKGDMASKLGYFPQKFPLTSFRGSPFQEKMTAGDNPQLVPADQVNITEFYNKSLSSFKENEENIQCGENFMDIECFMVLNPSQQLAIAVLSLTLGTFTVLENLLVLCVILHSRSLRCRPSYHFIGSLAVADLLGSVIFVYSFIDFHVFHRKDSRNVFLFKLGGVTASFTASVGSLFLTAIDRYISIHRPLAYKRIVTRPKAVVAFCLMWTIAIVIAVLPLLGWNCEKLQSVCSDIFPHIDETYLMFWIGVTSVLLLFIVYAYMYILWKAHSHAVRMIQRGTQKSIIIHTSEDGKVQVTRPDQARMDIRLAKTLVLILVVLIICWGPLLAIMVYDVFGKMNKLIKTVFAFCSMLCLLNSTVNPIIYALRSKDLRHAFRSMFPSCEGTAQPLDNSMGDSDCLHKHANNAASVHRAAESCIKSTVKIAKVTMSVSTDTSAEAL", "assay": "Radioligand binding assay, [3H]-CP-55,940, membranes of HEK cells expressing human CNR1", "conditions": "1.5 nM [3H]-CP-55,940, HEK cell membranes, 1 h at 30° C.", "description": "(§1) Radioligand Binding Assay\n(§2) The affinity of the compounds of the invention for cannabinoid receptors was determined using recommended amounts of membrane preparations (PerkinElmer) of human embryonic kidney (HEK) cells expressing the human CNR1 or CNR2 receptors in conjunction with 1.5 or 2.6 nM [3H]-CP-55,940 (Perkin Elmer) as radioligand, respectively. Binding was performed in binding buffer (50 mM Tris, 5 mM MgCl2, 2.5 mM EDTA, and 0.5% (wt/vol) fatty acid free BSA, pH 7.4 for CB1 receptor and 50 mM Tris, 5 mM MgCl2, 2.5 mM EGTA, and 0.1% (wt/vol) fatty acid free BSA, pH 7.4 for CB2 receptor) in a total volume of 0.2 mL for 1 h at 30° C. shaking. The reaction was terminated by rapid filtration through microfiltration plates coated with 0.5% polyethylenimine (UniFilter GF/B filter plate; Packard). Bound radioactivity was analyzed for Ki using nonlinear regression analysis (Activity Base, ID Business Solution, Limited), with the Kd values for [^3H]CP55,940 determined from saturation experiments."}, "human CB2 receptor": {"target": "human CB2 receptor (Homo sapiens (Human), UniProt P34972)", "sequence (P34972 whole entry)": "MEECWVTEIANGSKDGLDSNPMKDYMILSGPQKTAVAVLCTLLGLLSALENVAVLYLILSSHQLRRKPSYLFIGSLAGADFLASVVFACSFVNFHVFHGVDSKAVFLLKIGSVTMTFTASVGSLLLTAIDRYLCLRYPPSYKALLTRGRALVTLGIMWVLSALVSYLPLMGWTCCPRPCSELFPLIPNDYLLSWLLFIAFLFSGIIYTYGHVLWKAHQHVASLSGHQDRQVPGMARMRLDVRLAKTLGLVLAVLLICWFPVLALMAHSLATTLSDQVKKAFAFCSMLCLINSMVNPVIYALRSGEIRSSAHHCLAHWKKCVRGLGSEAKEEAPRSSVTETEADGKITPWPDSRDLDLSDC", "assay": "Radioligand binding assay, [3H]-CP-55,940, membranes of HEK cells expressing human CNR2", "conditions": "2.6 nM [3H]-CP-55,940, HEK cell membranes, 1 h at 30° C.", "description": "as §1, §2\nThe compounds according to formula (I) have an activity in the above assay (Ki) particularly of 0.5 nM to 10 μM, more particularly of 0.5 nM to 3 μM and most particularly of 0.5 nM to 100 nM."}}}
{"molecule": "Cc1nonc1Cn1nnc2c(N3CCC4(C3)N=N4)nc(C(C)(C)C)nc21", "note": "[Example 1, 5-tert-Butyl-3-[(4-methyl-1,2,5-oxadiazol-3-yl)methyl]-7-(1,2,5-triazaspiro[2.4]hept-1-en-5-yl)-3H-[1,2,3]triazolo[4,5-d]pyrimidine]", "values": [{"measurement": "Ki", "setting": "human CB1 receptor", "value": 2960, "unit": "nM"}, {"measurement": "Ki", "setting": "human CB2 receptor", "value": 16.1, "unit": "nM"}]}
{"molecule": "FC(F)(F)c1ccccc1Cn1nnc2c(N3CCC4(C3)N=N4)nc(C(F)(F)c3ccccc3)nc21", "note": "[Example 2, 5-[Difluoro(phenyl)methyl]-7-(1,2,5-triazaspiro[2.4]hept-1-en-5-yl)-3-{[2-(trifluoromethyl)phenyl]methyl}-3H-[1,2,3]triazolo[4,5-d]pyrimidine]", "values": [{"measurement": "Ki", "setting": "human CB1 receptor", "value": 993, "unit": "nM"}, {"measurement": "Ki", "setting": "human CB2 receptor", "value": 0.8, "unit": "nM"}]}
{"molecule": "CC(C)(C)c1nc(N2CCC3(C2)N=N3)c2nnn(Cc3ccccc3Cl)c2n1", "note": "[Example 3, 5-tert-Butyl-3-[(2-chlorophenyl)methyl]-7-(1,2,5-triazaspiro[2.4]hept-1-en-5-yl)-3H-[1,2,3]triazolo[4,5-d]pyrimidine]", "values": [{"measurement": "Ki", "setting": "human CB1 receptor", "value": 321, "unit": "nM"}, {"measurement": "Ki", "setting": "human CB2 receptor", "value": 3.3, "unit": "nM"}]}
{"molecule": "CC(C)(C)c1nc(N2CCC(F)(F)C2)c2nnn(Cc3ccccc3C3(C(F)(F)F)N=N3)c2n1", "note": "[Example 4, 5-tert-Butyl-7-(3,3-difluoropyrrolidin-1-yl)-3-({2-[3-(trifluoromethyl)-3H-diaziren-3-yl]phenyl}methyl)-3H-[1,2,3]triazolo[4,5-d]pyrimidine]", "values": [{"measurement": "Ki", "setting": "human CB1 receptor", "value": 488, "unit": "nM"}, {"measurement": "Ki", "setting": "human CB2 receptor", "value": 4.2, "unit": "nM"}]}
{"molecule": "C#Cc1ccccc1Cn1nnc2c(N3CCC4(C3)N=N4)nc(C(C)(C)C)nc21", "note": "[Example 5, 5-tert-Butyl-3-[(2-ethynylphenyl)methyl]-7-(1,2,5-triazaspiro[2.4]hept-1-en-5-yl)-3H-[1,2,3]triazolo[4,5-d]pyrimidine]", "values": [{"measurement": "Ki", "setting": "human CB1 receptor", "value": 132, "unit": "nM"}, {"measurement": "Ki", "setting": "human CB2 receptor", "value": 5.6, "unit": "nM"}]}
{"molecule": "FC(F)(c1ccccc1)c1nc(N2CCC3(C2)N=N3)c2nnn(Cc3ccccc3Cl)c2n1", "note": "[Example 6, 3-[(2-Chlorophenyl)methyl]-5-[difluoro(phenyl)methyl]-7-(1,2,5-triazaspiro[2.4]hept-1-en-5-yl)-3H-[1,2,3]triazolo[4,5-d]pyrimidine]", "values": [{"measurement": "Ki", "setting": "human CB1 receptor", "value": 799, "unit": "nM"}, {"measurement": "Ki", "setting": "human CB2 receptor", "value": 9.9, "unit": "nM"}]}
{"molecule": "Cc1nonc1Cn1nnc2c(N3CCC4(C3)N=N4)nc(C(F)(F)c3ccccc3)nc21", "note": "[Example 7, 5-[Difluoro(phenyl)methyl]-3-[(4-methyl-1,2,5-oxadiazol-3-yl)methyl]-7-(1,2,5-triazaspiro[2.4]hept-1-en-5-yl)-3H-[1,2,3]triazolo[4,5-d]pyrimidine]", "values": [{"measurement": "Ki", "setting": "human CB1 receptor", "value": 5410, "unit": "nM"}, {"measurement": "Ki", "setting": "human CB2 receptor", "value": 45.5, "unit": "nM"}]}
{"molecule": "CC(C)(C)c1nc(N2CCC(F)(F)C2)c2nnn(Cc3ccc(C4(C(F)(F)F)N=N4)cc3Cl)c2n1", "note": "[Example 8, 5-tert-Butyl-3-({2-chloro-4-[3-(trifluoromethyl)-3H-diaziren-3-yl]phenyl}methyl)-7-(3,3-difluoropyrrolidin-1-yl)-3H-[1,2,3]triazolo[4,5-d]pyrimidine]", "values": [{"measurement": "Ki", "setting": "human CB1 receptor", "value": "> 10000", "unit": "nM"}, {"measurement": "Ki", "setting": "human CB2 receptor", "value": 55.6, "unit": "nM"}]}
{"molecule": "C#CCCC1(CCNC(=O)c2nonc2Cn2nnc3c(N4CCC(F)(F)C4)nc(C(C)(C)C)nc32)N=N1", "note": "[Example 9, 4-{[5-tert-Butyl-7-(3,3-difluoropyrrolidin-1-yl)-3H-[1,2,3]triazolo[4,5-d]pyrimidin-3-yl]methyl}-N-{2-[3-(but-3-yn-1-yl)-3H-diaziren-3-yl]ethyl}-1,2,5-oxadiazole-3-carboxamide]", "values": [{"measurement": "Ki", "setting": "human CB1 receptor", "value": "> 10000", "unit": "nM"}, {"measurement": "Ki", "setting": "human CB2 receptor", "value": 1160, "unit": "nM"}]}
{"molecule": "C#CCCC1(CCNC(=O)c2nonc2Cn2nnc3c(N4CC[C@H](O)C4)nc(C(C)(C)C)nc32)N=N1", "note": "[Example 10, 4-({5-tert-Butyl-7-[(3S)-3-hydroxypyrrolidin-1-yl]-3H-[1,2,3]triazolo[4,5-d]pyrimidin-3-yl}methyl)-N-{2-[3-(but-3-yn-1-yl)-3H-diaziren-3-yl]ethyl}-1,2,5-oxadiazole-3-carboxamide]", "values": [{"measurement": "Ki", "setting": "human CB1 receptor", "value": "> 10000", "unit": "nM"}, {"measurement": "Ki", "setting": "human CB2 receptor", "value": 200, "unit": "nM"}]}
{"molecule": "C#Cc1ccccc1Cn1nnc2c(N3CCC4(C3)N=N4)nc(C(F)(F)c3ccccc3)nc21", "note": "[Example 11, 5-[Difluoro(phenyl)methyl]-3-[(2-ethynylphenyl)methyl]-7-(1,2,6-triazaspiro[2.4]hept-1-en-6-yl)triazolo[4,5-d]pyrimidine]", "values": [{"measurement": "Ki", "setting": "human CB1 receptor", "value": 465, "unit": "nM"}, {"measurement": "Ki", "setting": "human CB2 receptor", "value": 19, "unit": "nM"}]}
{"molecule": "C#Cc1cccc(C2(C(F)(F)F)N=N2)c1Cn1nnc2c(N3CCC(F)(F)C3)nc(C(F)(F)c3ccccc3)nc21", "note": "[Example 12, 5-[Difluoro(phenyl)methyl]-7-(3,3-difluoropyrrolidin-1-yl)-3-[[2-ethynyl-6-[3-(trifluoromethyl)diazirin-3-yl]phenyl]methyl]triazolo[4,5-d]pyrimidine]", "values": [{"measurement": "Ki", "setting": "human CB1 receptor", "value": 3390, "unit": "nM"}, {"measurement": "Ki", "setting": "human CB2 receptor", "value": 31, "unit": "nM"}]}
{"molecule": "C#Cc1cccc(C2(C(F)(F)F)N=N2)c1Cn1nnc2c(N3CCC(F)(F)C3)nc(C(C)(C)C)nc21", "note": "[Example 13, 5-tert-Butyl-7-(3,3-difluoropyrrolidin-1-yl)-3-[[2-ethynyl-6-[3-(trifluoromethyl)diazirin-3-yl]phenyl]methyl]triazolo[4,5-d]pyrimidine]", "values": [{"measurement": "Ki", "setting": "human CB1 receptor", "value": 147, "unit": "nM"}, {"measurement": "Ki", "setting": "human CB2 receptor", "value": 9, "unit": "nM"}]}
{"molecule": "C#Cc1cccc(C2(C(F)(F)F)N=N2)c1Cn1nnc2c(N3CC[C@H](O)C3)nc(C(C)(C)C)nc21", "note": "[Example 14, (3S)-1-[5-tert-Butyl-3-[[2-ethynyl-6-[3-(trifluoromethyl)diazirin-3-yl]phenyl]methyl]triazolo[4,5-d]pyrimidin-7-yl]pyrrolidin-3-ol]", "values": [{"measurement": "Ki", "setting": "human CB1 receptor", "value": "> 10000", "unit": "nM"}, {"measurement": "Ki", "setting": "human CB2 receptor", "value": 12, "unit": "nM"}]}
{"molecule": "C#Cc1cccc(C2(C(F)(F)F)N=N2)c1Cn1nnc2c(N3CC[C@H](O)C3)nc(C(F)(F)c3ccccc3)nc21", "note": "[Example 15, (3S)-1-[5-[Difluoro(phenyl)methyl]-3-[[2-ethynyl-6-[3-(trifluoromethyl)diazirin-3-yl]phenyl]methyl]triazolo[4,5-d]pyrimidin-7-yl]pyrrolidin-3-ol]", "values": [{"measurement": "Ki", "setting": "human CB1 receptor", "value": "> 10000", "unit": "nM"}, {"measurement": "Ki", "setting": "human CB2 receptor", "value": 58, "unit": "nM"}]}
